Source: the supplement of paper PMC10307832

Tests used:
Test in all cases: relative viability (nuclei count vs DMSO), 5 days (fraction); higher = more cells survive
Tosedostat + Luminespib = compound: CC(C)C[C@@H](C(=O)N[C@H](C(=O)OC1CCCC1)c1ccccc1)[C@H](O)C(=O)NO [Tosedostat] + CCNC(=O)c1noc(-c2cc(C(C)C)c(O)cc2O)c1-c1ccc(CN2CCOCC2)cc1 [Luminespib] (partner 0.01 µM)
Procedure, shortened: (§1)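 One day after seeding in 1536-well plates, lung cancer cell lines were dosed by pin tool. Dosing was either single-drug or a fixed anchor-drug dose plus five library-drug doses (not always all listed) in √10 steps. After 5 days, nuclei were stained in one fix-and-stain step and counted on 4× images, and relative viability is the nuclei count of treated wells over that of vehicle wells, given as the median of duplicate plates.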

Tosedostat + Olaparib = compound: CC(C)C[C@@H](C(=O)N[C@H](C(=O)OC1CCCC1)c1ccccc1)[C@H](O)C(=O)NO [Tosedostat] + O=C(c1cc(Cc2n[nH]c(=O)c3ccccc23)ccc1F)N1CCN(C(=O)C2CC2)CC1 [Olaparib] (partner 8 µM)
Procedure, shortened: as §1

[1] = compound: CC1=NN=C(O1)C2=NN=C(C=C2)N3CCC(CC3)OC4=C(C=CC(=C4)F)Cl + CS(=O)(=O)N1CCN(Cc2cc3nc(-c4cccc5[nH]ncc45)nc(N4CCOCC4)c3s2)CC1 [Pictilisib] (partner 1 µM)
Procedure, shortened: as §1

[2] = compound: CC1=NN=C(O1)C2=NN=C(C=C2)N3CCC(CC3)OC4=C(C=CC(=C4)F)Cl + NC(=O)Nc1cc(-c2cccc(F)c2)sc1C(=O)N[C@H]1CCCNC1 [AZD7762] (partner 0.2 µM)
Procedure, shortened: as §1

| Cell Line | relative viability (Tosedostat + Luminespib; first compound 0.02 µM) | relative viability (Tosedostat + Luminespib; first compound 0.06325 µM) | relative viability (Tosedostat + Luminespib; first compound 0.2 µM) | relative viability (Tosedostat + Luminespib; first compound 0.6325 µM) | relative viability (Tosedostat + Luminespib; first compound 2 µM) | relative viability (Tosedostat + Olaparib; first compound 0.02 µM) | relative viability (Tosedostat + Olaparib; first compound 0.06325 µM) | relative viability (Tosedostat + Olaparib; first compound 0.2 µM) | relative viability (Tosedostat + Olaparib; first compound 0.6325 µM) | relative viability (Tosedostat + Olaparib; first compound 2 µM) | relative viability ([1]; first compound 0.253 µM) | relative viability ([1]; first compound 2.53 µM) | relative viability ([1]; first compound 8 µM) | relative viability ([2]; first compound 0.253 µM) | relative viability ([2]; first compound 2.53 µM) | relative viability ([2]; first compound 8 µM) | relative viability ([1]; first compound 0.8 µM) | relative viability ([2]; first compound 0.8 µM) |
| --- | --- | --- | --- | --- | --- | --- | --- | --- | --- | --- | --- | --- | --- | --- | --- | --- | --- | --- |
| LCLC-97TM1 | 0.775 | 0.81 | 0.688 | 0.644 | 0.652 | 0.335 | 0.436 | 0.309 | 0.236 | 0.251 | 0.234 | 0.213 | 0.239 | 0.264 | 0.235 | 0.205 | – | – |
| NCI-H838 | 0.323 | 0.284 | 0.308 | 0.389 | 0.355 | 0.839 | 0.716 | 0.735 | 0.739 | 0.729 | 0.422 | 0.442 | 0.416 | 0.74 | 0.918 | 0.787 | 0.459 | 0.778 |
| H3255 | 1.02 | 0.807 | 0.906 | 0.683 | 0.75 | 0.596 | 0.532 | 0.545 | 0.525 | 0.497 | 0.505 | 0.433 | 0.397 | 0.633 | 0.628 | 0.639 | 0.438 | 0.663 |
| NCI-H1651 | 0.787 | 0.715 | 0.981 | 0.828 | 0.582 | 0.201 | 0.203 | 0.168 | 0.156 | 0.141 | 0.506 | 0.524 | 0.417 | 0.423 | 0.448 | 0.386 | 0.665 | 0.412 |
| LXF-289 | 0.703 | 0.599 | 0.687 | 0.732 | 0.64 | 1.08 | 0.958 | 1.07 | 0.969 | 0.942 | 0.69 | 0.687 | 0.6 | 0.898 | 1.12 | 0.967 | 0.718 | 0.757 |
| HCC-827 | 0.587 | 0.73 | 0.651 | 0.362 | 0.695 | 0.543 | 0.526 | 0.602 | 0.317 | 0.506 | 0.544 | 0.609 | 0.605 | 0.299 | 0.213 | 0.2 | 0.571 | 0.158 |
| LK-2 | 0.175 | 0.21 | 0.167 | 0.221 | 0.214 | 0.615 | 0.798 | 0.583 | 0.592 | 0.437 | 0.651 | 0.869 | 0.751 | 0.622 | 0.308 | 0.294 | 0.716 | 0.366 |
| BEN | 0.467 | 0.387 | 0.264 | 0.435 | 0.248 | 1.11 | 0.952 | 1.31 | 1.09 | 1.02 | 0.571 | 0.68 | 0.584 | 0.681 | 0.878 | 0.729 | 0.62 | 0.752 |
| NCI-H322M | 0.835 | 0.895 | 0.862 | 0.826 | 0.788 | 0.746 | 0.713 | 0.67 | 0.532 | 0.635 | 0.511 | 0.482 | 0.451 | 0.51 | 0.581 | 0.543 | 0.486 | 0.563 |
| NCI-H1395 | 0.635 | 0.774 | 0.664 | 0.663 | 0.559 | 0.461 | 0.463 | 0.469 | 0.412 | 0.402 | 0.565 | 0.567 | 0.549 | 0.377 | 0.392 | 0.404 | 0.597 | 0.378 |
| 201T | 0.969 | 1.2 | 1.14 | 1.24 | 1.18 | 0.824 | 0.913 | 0.874 | 0.896 | 0.862 | 0.537 | 0.681 | 0.663 | 0.447 | 0.531 | 0.505 | 0.634 | 0.481 |
| NCI-H2170 | 0.819 | 0.637 | 0.612 | 0.592 | 0.662 | 0.579 | 0.513 | 0.686 | 0.574 | 0.613 | 0.282 | 0.368 | 0.274 | 0.343 | 0.472 | 0.367 | 0.335 | 0.346 |
| RERF-LC-KJ | 1.35 | 1.23 | 1.36 | 1.08 | 1.2 | 0.903 | 0.999 | 0.829 | 0.757 | 0.747 | 0.561 | 0.482 | 0.454 | 0.53 | 0.564 | 0.554 | 0.529 | 0.569 |
| HCC-15 | 0.408 | 0.269 | 0.78 | 0.211 | 0.308 | 0.799 | 0.723 | 0.62 | 0.495 | 0.44 | 0.583 | 0.6 | 0.546 | 0.733 | 0.639 | 0.608 | 0.566 | 0.571 |
| NCI-H1666 | 1.02 | 1.01 | 0.969 | 0.994 | 1.11 | 0.726 | 0.732 | 0.72 | 0.638 | 0.777 | 0.276 | 0.456 | 0.313 | 0.686 | 0.79 | 0.715 | 0.414 | 0.765 |
| ABC-1 | 0.622 | 0.706 | 0.596 | 0.647 | 0.398 | 0.842 | 0.784 | 0.843 | 0.848 | 0.491 | 0.389 | 0.547 | 0.464 | 0.852 | 0.597 | 0.45 | 0.532 | 0.712 |
| LCLC-103H | 1.04 | 0.932 | 1.04 | 0.998 | 0.9 | 0.763 | 0.773 | 0.777 | 0.816 | 0.772 | 0.556 | 0.567 | 0.473 | 0.62 | 0.633 | 0.631 | 0.479 | 0.657 |
